Here are results for 48 molecules from ChEMBL document CHEMBL5727836, “Treatment of infectious diseases with glucose uptake inhibitors” (2020).

The nature of the experiment: ATP Assay: HT1080 cells (as well as other cell types) were plated to confluency in 96-well plates. Cells were exposed to the combination of 10 μM Oligomycin (to block mitochondrial-derived ATP), and the glucose uptake inhibitor compounds for one-hour, after which glycolytically-dervied ATP was measured with the Cell Titer-Glo assay kit (Promega). Dose-response curves of the glucose uptake inhibitor compounds were used to determine the IC50 for GLUT activity. Particulars: HT-1080, 1 h. On the technique in general: Cellular ATP, detected with luciferase, serves as a proxy for viable cell number.
With `CC(=O)N1Cc2nc(-c3cccc(OCC(=O)NC(C)(C)C)c3)nc(Nc3ccc(-c4cn[nH]c4)cc3)c2C1`, the IC50 (in general, the concentration that inhibits the measured activity by half) was “in the range around 55 nM”.

As to `O=C(COc1cccc(-c2nc(Nc3ccc(-c4cn[nH]c4)cc3)c3ncsc3n2)c1)NC1CCC1`, the half-inhibitory concentration (IC50) result was “in the range around 375 nM”.

On to `CC(C)NC(=O)COc1cccc(-c2nc(Nc3ccc(-c4cn[nH]c4)cc3)c3ncsc3n2)c1`, for which the IC50 result is “in the range around 375 nM”.

As to `O=C(COc1cccc(-c2nc(Nc3ccc(-c4cn[nH]c4)cc3)c3occc3n2)c1)NC1CCCC1`, the IC50 entry was “in the range around 375 nM”.

Turning to `CC(C)(C)NC(=O)COc1cccc(-c2nc3c(c(Nc4ccc(-c5cn[nH]c5)cc4)n2)COC3)c1`, the IC50 entry is “in the range around 55 nM”.

For `Cn1ncc2c(Nc3ccc(-c4cn[nH]c4)cc3)nc(-c3cccc(OCC(=O)NC4CCC4)c3)nc21`, the IC50 entry is “in the range around 375 nM”.

With `CC(=O)N1CCc2nc(-c3cccc(OCC(=O)NCC(C)C)c3)nc(Nc3ccc(-c4cn[nH]c4)cc3)c2C1`, the IC50 entry was “in the range around 55 nM”.

Consider `O=C(COc1cccc(-c2nc3c(c(Nc4ccc(-c5cn[nH]c5)cc4)n2)COC3)c1)NC1CC(F)(F)C1`, for which the IC50 entry is “in the range around 175 nM”.

As to `CC(C)(C)NC(=O)COc1cccc(-c2nc(Nc3ccc(-c4cn[nH]c4)cc3)c3sccc3n2)c1`, the concentration for half-maximal inhibition (IC50) result is “in the range around 175 nM”.

With `O=C(COc1cccc(-c2nc(Nc3ccc(-c4cn[nH]c4)cc3)c3sccc3n2)c1)NC1CCC1`, the IC50 result is “in the range around 175 nM”.

On to `CC(=O)N1CCc2nc(-c3cccc(OCC(=O)NC4CCCC4)c3)nc(Nc3ccc(-c4cn[nH]c4)cc3)c2C1`, for which the IC50 result was “in the range around 55 nM”.

Turning to `CC(C)CNC(=O)COc1cccc(-c2nc3c(c(Nc4ccc(-c5cn[nH]c5)cc4)n2)COCC3)c1`, the IC50 entry is “in the range around 55 nM”.

On to `CCC(C)NC(=O)COc1cccc(-c2nc3c(c(Nc4ccc(-c5cn[nH]c5)cc4)n2)COC3)c1` (stereo not drawn), for which the IC50 entry was “in the range around 55 nM”.

For `CC(=O)N1CCc2nc(-c3cccc(OCC(=O)NC(C)C)c3)nc(Nc3ccc(-c4cn[nH]c4)cc3)c2C1`, the IC50 result is “in the range around 175 nM”.

For `CC(C)(C)CNC(=O)COc1cccc(-c2nc3c(c(Nc4ccc(-c5cn[nH]c5)cc4)n2)COCC3)c1`, the IC50 result was “in the range around 55 nM”.

Turning to `CC(C)(C)NC(=O)COc1cccc(-c2nc(Nc3ccc(-c4cn[nH]c4)cc3)c3cnccc3n2)c1`, the IC50 entry is “in the range around 55 nM”.

Take `CC(C)(C)CNC(=O)COc1cccc(-c2nc3c(c(Nc4ccc(-c5cn[nH]c5)cc4)n2)COC3)c1`: the IC50 result is “in the range around 55 nM”.

Turning to `CC(C)NC(=O)COc1cccc(-c2nc3c(c(Nc4ccc(-c5cn[nH]c5)cc4)n2)CSC3)c1`, the IC50 entry is “in the range around 375 nM”.

In the case of `O=C(COc1cccc(-c2nc3c(c(Nc4ccc(-c5cn[nH]c5)cc4)n2)COCC3)c1)NC1CCCC1`, the 50% inhibitory concentration (IC50) entry is “in the range around 55 nM”.

As for `CC(C)NC(=O)COc1cccc(-c2nc3c(c(Nc4ccc(-c5cn[nH]c5)cc4)n2)CN(C(=O)C(C)C)CC3)c1`, the IC50 result is “in the range around 55 nM”.

In the case of `Cn1cnc2c(Nc3ccc(-c4cn[nH]c4)cc3)nc(-c3cccc(OCC(=O)NC4CCC4)c3)nc21`, the 50% inhibitory concentration (IC50) entry is “in the range around 375 nM”.

For `O=C(COc1cccc(-c2nc(Nc3ccc(-c4cn[nH]c4)cc3)c3ccncc3n2)c1)NC1CCC1`, the IC50 entry was “in the range around 55 nM”.

`CC(=O)N1Cc2nc(-c3cccc(OCC(=O)NC(C)C)c3)nc(Nc3ccc(-c4cn[nH]c4)cc3)c2C1`: the IC50 entry was “in the range around 175 nM”.

With `CC(=O)N1CCc2nc(-c3cccc(OCC(=O)NC(C)(C)C)c3)nc(Nc3ccc(-c4cn[nH]c4)cc3)c2C1`, the IC50 entry is “in the range around 55 nM”.

As for `CCC(C)NC(=O)COc1cccc(-c2nc3c(c(Nc4ccc(-c5cn[nH]c5)cc4)n2)COCC3)c1` (stereo not drawn), the IC50 result was “in the range around 55 nM”.

For the molecule `CC(C)NC(=O)COc1cccc(-c2nc(Nc3ccc(-c4cn[nH]c4)cc3)c3cnccc3n2)c1`, the IC50 entry was “in the range around 55 nM”.

`O=C(COc1cccc(-c2nc(Nc3ccc(-c4cn[nH]c4)cc3)c3sccc3n2)c1)NC1CC1`: the IC50 was determined as 750 nM.

Turning to `CC(C)NC(=O)COc1cccc(-c2nc(Nc3ccc(-c4cn[nH]c4)cc3)c3cnn(C)c3n2)c1`, the IC50 result was “in the range around 375 nM”.

Regarding `O=C(COc1cccc(-c2nc(Nc3ccc(-c4cn[nH]c4)cc3)c3sccc3n2)c1)NC1CCCC1`, the IC50 result was “in the range around 55 nM”.

As for `O=C(COc1cccc(-c2nc(Nc3ccc(-c4cn[nH]c4)cc3)c3ccncc3n2)c1)NC1CCCC1`, the half-inhibitory concentration (IC50) result was “in the range around 55 nM”.

As for `O=C(COc1cccc(-c2nc(Nc3ccc(-c4cn[nH]c4)cc3)c3ncsc3n2)c1)NC1CCCC1`, the IC50 result is “in the range around 175 nM”.

For the molecule `CCC(CC)NC(=O)COc1cccc(-c2nc3c(c(Nc4ccc(-c5cn[nH]c5)cc4)n2)COC3)c1`, the IC50 result was “in the range around 55 nM”.

In the case of `CC(C)CNC(=O)COc1cccc(-c2nc(Nc3ccc(-c4cn[nH]c4)cc3)c3ncccc3n2)c1`, the IC50 entry was “in the range around 175 nM”.

As to `CC(C)NC(=O)COc1cccc(-c2nc3c(c(Nc4ccc(-c5cn[nH]c5)cc4)n2)COCC3)c1`, the IC50 entry is “in the range around 55 nM”.

Turning to `CC(C)CNC(=O)COc1cccc(-c2nc3c(c(Nc4ccc(-c5cn[nH]c5)cc4)n2)COC3)c1`, the half-inhibitory concentration (IC50) entry was “in the range around 55 nM”.

For `CCC(C)(C)NC(=O)COc1cccc(-c2nc(Nc3ccc(-c4cn[nH]c4)cc3)c3sccc3n2)c1`, the half-maximal inhibitory concentration (IC50) entry is “in the range around 175 nM”.

Take `CC(C)CNC(=O)COc1cccc(-c2nc(Nc3ccc(-c4cn[nH]c4)cc3)c3cnn(C)c3n2)c1`: the IC50 result was “in the range around 175 nM”.

As to `CCC(CC)NC(=O)COc1cccc(-c2nc3c(c(Nc4ccc(-c5cn[nH]c5)cc4)n2)CN(C(C)=O)C3)c1`, the IC50 result is “in the range around 55 nM”.

For the molecule `CC(C)NC(=O)COc1cccc(-c2nc(Nc3ccc(-c4cn[nH]c4)cc3)c3ccncc3n2)c1`, the IC50 entry was “in the range around 55 nM”.

Consider `CCC(CC)NC(=O)COc1cccc(-c2nc3c(c(Nc4ccc(-c5cn[nH]c5)cc4)n2)CN(C(C)=O)CC3)c1`, for which the IC50 result is “in the range around 55 nM”.

In the case of `O=C(COc1cccc(-c2nc3c(c(Nc4ccc(-c5cn[nH]c5)cc4)n2)CSC3)c1)NC1CCC1`, the half-inhibitory concentration (IC50) entry was “in the range around 175 nM”.

As for `O=C(COc1cccc(-c2nc3c(c(Nc4ccc(-c5cn[nH]c5)cc4)n2)COCC3)c1)NC1CCC1`, the IC50 entry is “in the range around 55 nM”.

Consider `O=C(COc1cccc(-c2nc3c(c(Nc4ccc(-c5cn[nH]c5)cc4)n2)CSC3)c1)NC1CCCC1`, for which the IC50 result was “in the range around 175 nM”.

On to `Cn1ncc2c(Nc3ccc(-c4cn[nH]c4)cc3)nc(-c3cccc(OCC(=O)NC4CCCC4)c3)nc21`, for which the IC50 entry was “in the range around 175 nM”.

Take `CC(C)NC(=O)COc1cccc(-c2nc(Nc3ccc4[nH]ncc4c3)c3sccc3n2)c1`: the IC50 entry is “in the range around 55 nM”.

Turning to `CC(C)CNC(=O)COc1cccc(-c2nc(Nc3ccc(-c4cn[nH]c4)cc3)c3ncsc3n2)c1`, the IC50 result is “in the range around 375 nM”.

With `O=C(COc1cccc(-c2nc(Nc3ccc(-c4cn[nH]c4)cc3)c3occc3n2)c1)NC1CCC1`, the IC50 entry is “in the range around 375 nM”.

In the case of `O=C(CN1CCOCC1)Nc1cccc(-c2nc(Nc3ccc(-c4cn[nH]c4)cc3)c3ccsc3n2)c1`, the IC50 entry was “in the range around 175 nM”.
